Numbers after ± are expanded uncertainties.
Conditions: Liquid, Closed cell (Static) method

CCCCCCC#N [heptanenitrile]
vapor or sublimation pressure (238.15 K): 0.00048 ± 0.00011 kPa | vapor or sublimation pressure (243.15 K): 0.00085 ± 0.00012 kPa | vapor or sublimation pressure (248.15 K): 0.00146 ± 0.00013 kPa | vapor or sublimation pressure (253.15 K): 0.00246 ± 0.00015 kPa | vapor or sublimation pressure (258.15 K): 0.00408 ± 0.00019 kPa | vapor or sublimation pressure (263.15 K): 0.00662 ± 0.00028 kPa | vapor or sublimation pressure (268.15 K): 0.01055 ± 0.00042 kPa | vapor or sublimation pressure (273.15 K): 0.01647 ± 0.00057 kPa | vapor or sublimation pressure (273.66 K): 0.01723 ± 0.00058 kPa | vapor or sublimation pressure (278.16 K): 0.02527 ± 0.00071 kPa | vapor or sublimation pressure (283.15 K): 0.03801 ± 0.00091 kPa | vapor or sublimation pressure (288.15 K): 0.05634 ± 0.0012 kPa | vapor or sublimation pressure (293.15 K): 0.0819 ± 0.0017 kPa | vapor or sublimation pressure (298.15 K): 0.1175 ± 0.0023 kPa | vapor or sublimation pressure (303.16 K): 0.1649 ± 0.0027 kPa | vapor or sublimation pressure (308.18 K): 0.2302 ± 0.0035 kPa

CCCCCCCCC#N [nonanenitrile]
vapor or sublimation pressure (273.66 K): 0.00148 ± 0.00013 kPa | vapor or sublimation pressure (278.15 K): 0.00231 ± 0.00015 kPa | vapor or sublimation pressure (283.15 K): 0.0037 ± 0.00018 kPa | vapor or sublimation pressure (288.15 K): 0.00585 ± 0.00025 kPa | vapor or sublimation pressure (293.15 K): 0.00907 ± 0.00037 kPa | vapor or sublimation pressure (298.15 K): 0.01387 ± 0.00053 kPa | vapor or sublimation pressure (303.16 K): 0.02079 ± 0.00064 kPa | vapor or sublimation pressure (308.18 K): 0.03074 ± 0.00079 kPa

CCCCCCCC#N [octanenitrile]
vapor or sublimation pressure (238.15 K): 0.00012 ± 0.00011 kPa | vapor or sublimation pressure (243.15 K): 0.00021 ± 0.00011 kPa | vapor or sublimation pressure (248.15 K): 0.00037 ± 0.00012 kPa | vapor or sublimation pressure (253.15 K): 0.00064 ± 0.00012 kPa | vapor or sublimation pressure (258.15 K): 0.00108 ± 0.00012 kPa | vapor or sublimation pressure (263.15 K): 0.0018 ± 0.00014 kPa | vapor or sublimation pressure (268.15 K): 0.00295 ± 0.00016 kPa | vapor or sublimation pressure (273.15 K): 0.00476 ± 0.00021 kPa | vapor or sublimation pressure (273.65 K): 0.00502 ± 0.00022 kPa | vapor or sublimation pressure (278.15 K): 0.00758 ± 0.00031 kPa | vapor or sublimation pressure (283.15 K): 0.01175 ± 0.00047 kPa | vapor or sublimation pressure (288.15 K): 0.01796 ± 0.00059 kPa | vapor or sublimation pressure (293.15 K): 0.02693 ± 0.00073 kPa | vapor or sublimation pressure (298.15 K): 0.0398 ± 0.00094 kPa | vapor or sublimation pressure (303.15 K): 0.05793 ± 0.0013 kPa | vapor or sublimation pressure (308.15 K): 0.08314 ± 0.0017 kPa
